Data on five compounds can be found in patent US20210340500A1, “METHOD FOR PRODUCING INTESTINAL CELLS FROM PLURIPOTENT STEM CELLS” (TOKYO INSTITUTE OF TECHNOLOGY, priority 2018, published 2021).

One data set concerns CYP3A4 expression. The experiment in a line: CYP3A4 mRNA expression in hiPSC-derived enterocytes by real time PCR. The data set is classed as cell-based, human. Particulars: day 21 of differentiation.
The next data set has as its target P-gp (Homo sapiens, UniProt P08183).
Data set [1] has as its system hiPSC-derived enterocytes.
The subject of data set [2] is Caco-2 cells. The conditions noted are these: cited from earlier work.
Another data set concerns the target CYP3A4 (Homo sapiens, UniProt P08684). The experiment in a line: CYP metabolism assay (midazolam hydroxylation, LC-MS/MS) in hiPS-derived enterocytes. Particulars: day 21 of differentiation, 120 min incubation.
The subject of data set [3] is Caco-2 cells. The experiment in a line: Transport across Caco-2 cell monolayer (literature). Particulars: corresponds to the literature value. Format: in vitro ADME, human. In general terms: Caco-2 monolayers are a common model of the intestinal barrier.

P-gp, sequence (P08183 whole entry): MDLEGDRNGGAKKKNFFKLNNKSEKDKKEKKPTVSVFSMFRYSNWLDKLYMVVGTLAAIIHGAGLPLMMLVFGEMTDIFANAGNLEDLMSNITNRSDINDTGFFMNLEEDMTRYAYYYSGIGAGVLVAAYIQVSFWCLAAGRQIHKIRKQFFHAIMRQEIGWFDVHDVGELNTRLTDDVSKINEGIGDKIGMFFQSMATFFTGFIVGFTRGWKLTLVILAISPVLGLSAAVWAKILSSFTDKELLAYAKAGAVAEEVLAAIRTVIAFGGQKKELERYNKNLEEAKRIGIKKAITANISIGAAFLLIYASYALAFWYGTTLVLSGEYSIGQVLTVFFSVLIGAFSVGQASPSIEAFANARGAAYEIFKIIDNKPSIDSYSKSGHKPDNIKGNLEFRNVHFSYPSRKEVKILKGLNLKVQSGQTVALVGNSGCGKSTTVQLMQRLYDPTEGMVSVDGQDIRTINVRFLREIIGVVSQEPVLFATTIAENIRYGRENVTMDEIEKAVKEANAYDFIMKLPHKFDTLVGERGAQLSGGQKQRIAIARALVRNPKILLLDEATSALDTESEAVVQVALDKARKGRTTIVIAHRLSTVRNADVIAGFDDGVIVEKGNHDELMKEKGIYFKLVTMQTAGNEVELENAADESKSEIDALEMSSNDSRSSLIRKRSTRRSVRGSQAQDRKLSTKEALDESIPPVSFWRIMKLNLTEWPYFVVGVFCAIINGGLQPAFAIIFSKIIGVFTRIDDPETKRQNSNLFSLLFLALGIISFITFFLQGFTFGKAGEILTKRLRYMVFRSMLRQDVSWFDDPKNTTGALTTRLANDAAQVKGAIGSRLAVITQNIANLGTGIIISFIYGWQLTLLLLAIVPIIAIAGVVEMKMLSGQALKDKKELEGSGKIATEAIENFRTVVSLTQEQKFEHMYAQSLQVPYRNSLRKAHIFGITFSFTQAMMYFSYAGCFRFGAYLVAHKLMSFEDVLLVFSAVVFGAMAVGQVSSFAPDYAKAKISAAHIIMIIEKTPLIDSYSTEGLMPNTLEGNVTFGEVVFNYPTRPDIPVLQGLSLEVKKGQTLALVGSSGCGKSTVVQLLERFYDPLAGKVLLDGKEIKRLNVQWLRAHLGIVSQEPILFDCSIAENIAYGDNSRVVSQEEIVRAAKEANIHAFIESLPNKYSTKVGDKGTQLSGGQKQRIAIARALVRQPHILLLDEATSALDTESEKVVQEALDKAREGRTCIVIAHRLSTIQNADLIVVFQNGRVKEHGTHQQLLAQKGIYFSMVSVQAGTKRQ
CYP3A4, sequence (P08684 whole entry): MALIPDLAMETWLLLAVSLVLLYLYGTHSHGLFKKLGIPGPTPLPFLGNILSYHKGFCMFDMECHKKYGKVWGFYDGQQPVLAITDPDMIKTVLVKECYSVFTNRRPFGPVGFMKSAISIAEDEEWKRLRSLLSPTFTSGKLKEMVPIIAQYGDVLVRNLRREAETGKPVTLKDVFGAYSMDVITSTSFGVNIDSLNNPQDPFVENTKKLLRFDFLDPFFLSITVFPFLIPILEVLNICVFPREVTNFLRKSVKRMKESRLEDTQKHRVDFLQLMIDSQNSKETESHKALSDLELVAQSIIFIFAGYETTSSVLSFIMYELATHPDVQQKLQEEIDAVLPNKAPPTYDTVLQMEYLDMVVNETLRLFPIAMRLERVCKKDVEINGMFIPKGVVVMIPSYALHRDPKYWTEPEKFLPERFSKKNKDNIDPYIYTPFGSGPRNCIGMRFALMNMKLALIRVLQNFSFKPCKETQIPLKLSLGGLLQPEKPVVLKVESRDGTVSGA
Experimental for CYP3A4 expression: For intestine differentiation, the day 10 intestinal precursor cell stock was freeze thawed, and plated onto a rehydrated vitrigel membrane (CVM) 24-well insert (ad-MED Vitrigel™ 2, KANTO KAGAKU, culture area: 0.33 cm^2/insert) in M2 medium at a concentration of 1.6×10^5 cells/well. Y-27632 (WAKO: 251-00514) was added to the medium upon plating for the first 2 days. The cells were cultured in M2 until day 15. A volume of the medium was 200 μL for an upper layer and 700 μL for a lower layer of the cell culture insert. The medium was changed to M3-1 or M3-2 for days 15 to 21, or up to day 30. The medium was replaced every 2 days with a fresh medium.
M3-1 medium: William's Medium E supplemented with L-glutamine, HCM SingleQuots (containing neither GA1000 nor human EGF) (Lonza, CC-4182), 1% PS (Nacalai), 10 ng/ml recombinant human HGF (PeproTech 100-39), 1 μM dexamethasone (Sigma-Aldrich, D8893), 1.4 μM BIO, and 1 M calcitriol (Sigma-Aldrich, D1530). […]
For a reverse transcription reaction, 2.5 μg of RNA was reverse-transcribed using PrimeScript™ RT Master Mix (Takara, Japan). For real-time PCR analysis, mRNA expression was quantified with SyberGreen on a StepOne Plus (Applied Biosystems, Foster City, Calif.). […] A target mRNA level was expressed as an arbitrary unit, and was determined using the ΔΔ CT method.

For `C=C1/C(=C\C=C2/CCC[C@]3(C)[C@@H]([C@H](C)CCCC(C)(C)O)CC[C@@H]23)C[C@@H](O)C[C@@H]1O` [calcitriol], the “CYP3A4 expression when calcitriol is removed from M3-2 medium” value in the data set with CYP3A4 expression was “minimally expressed CYP3A4”.

Turning to `C[C@H]1O[C@@H](O[C@H]2[C@@H](O)C[C@H](O[C@H]3[C@@H](O)C[C@H](O[C@H]4CC[C@@]5(C)[C@H](CC[C@@H]6[C@@H]5C[C@@H](O)[C@]5(C)[C@@H](C7=CC(=O)OC7)CC[C@]65O)C4)O[C@@H]3C)O[C@@H]2C)C[C@H](O)[C@@H]1O` [digoxin], the “directional B-to-A transport compared with A-to-B transport” value on P-gp was “at a level higher than apical-to-basal transport”. Turning to `OC[C@@H](O)[C@@H](O)[C@H](O)[C@H](O)CO` [mannitol], the “directional transport across a cell monolayer” value in data set [1] is reported as “directional transport of neither propranolol nor mannitol across a cell monolayer was observed”. Also, the “transport clearance across a Caco-2 cell monolayer (paracellular)” value with Caco-2 cells [2] (Cogburn et al. 1991) is recorded as 3 %/cm^2/hr.

In the case of `Cc1ncc2n1-c1ccc(Cl)cc1C(c1ccccc1F)=NC2` [midazolam], at CYP3A4, the “clearance rate of formation of 1′-OH midazolam” value is 0.773 μL/min/mg cellular protein.

Take `CC(C)NCC(O)COc1cccc2ccccc12` (centres unmarked) [propranolol]: the “transcellular transport (present result)” value in data set [1] (human, 120 min, 0.1 μCi/3 mL, pH 7.4) amounted to 48 μL/120 min/well. Further, the “transcellular transport in the Caco-2 cells, converted” value in the data set on Caco-2 cells [3] is “approximately 99.4 μL/120 min/well”. In addition, the “transcellular transport in the Caco-2 cells” value in the data set with Caco-2 cells [2] (Artursson 1990) is 4.19e-05 cm/s.
